Columns and labels:
MV-4-11 [1] = assay: Immunoblot analysis of phosphorylation of Pim kinase substrates, MV-4-11; type: cell-based; settings: MV-4-11, 4 h
Protocol: (§1) Cells were plated overnight and then treated with test compounds for 4 hours. Then, the cells were lyzed in solubilization buffer [10 mM Tris-HCl (pH7.4), 0.1% (w/v) NP-40, 0.1% (w/v) sodium deoxycholate, 0.1% (w/v) SDS, 0.15 M NaCl, 1 mM EDTA, 10 µM aprotinin] with phosphatase inhibitor cocktails (Nakarai Tesque, Kyoto, Japan), and subjected to SDS-PAGE using 15% (w/v) gels under reducing conditions. The separated proteins were electrotransferred to Immobilon transfer membranes (Merck Millipore, Darmstadt, Germany). Then, each membrane was reacted with primary antibodies, which were subsequently complexed with appropriate horseradish peroxidase-conjugated secondary antibodies. Signals were detected using the ECL Western Blotting Detection System (GE Healthcare Life Sciences) and protein expression was quantified with a LAS-3000 Luminescent Image Analyzer (GE Healthcare Life Sciences). The protein bands were quantified using ImageQuant TL software (GE Healthcare Life Sciences).

PC-3 [2] = assay: Immunoblot analysis of phosphorylation of Pim kinase substrates, PC-3; type: cell-based; settings: PC-3, 4 h
Protocol: as §1

MV-4-11 [3] = assay: Cell cycle analysis, MV-4-11; type: cell-based; settings: 24 h (DMSO 52%)
From the text: (§2) After treatment, cells were fixed and stained with propidium iodide using the Cell Cycle Phase Determination kit (Cayman Chemical, Ann Arbor, MI, United States) and analyzed by Guava EasyCyteTM Plus System (Merck Millipore).

MKN45 = assay: Immunoblot analysis of phosphorylation of Pim kinase substrates, MKN45; type: cell-based; settings: MKN45, 4 h
Protocol: as §1

PC-3 [4] = assay: Cell cycle analysis, PC-3; type: cell-based; settings: 24 h (DMSO 41%)
From the text: as §2

Pim-1, 2, and 3 = assay: Kinetic assay (Lineweaver-Burk analysis); type: biochemical
Protocol: Enzyme kinetic experiments were performed at pH 7.5 in 50 mM HEPES buffer with 1 mM EGTA, 10 mM MgCl2, and 0.01% Brij-35. […] Plates were immediately placed into a Caliper LabChip EZ Reader II (PerkinElmer Inc.) and wells were sampled periodically throughout an 1-hour reaction period for initial reaction rate. The fluorescent product and substrate were separated and monitored on a Caliper microfluidic instrument. The conversion of substrate was calculated with Caliper software. Ki values were determined from the double reciprocal Lineweaver-Burk plot.

FLT3 = molecular target: T1, FLT3 (Homo sapiens, UniProt P36888); assay: FLT3 kinase activity assay (FRET-based Z'-LYTE); type: biochemical; settings: ATP 500 µM; read-out: IC50 against FLT3 kinase
T1 construct: purchased Life Technologies; Thermo Fisher Scientific Inc
T1 sequence (P36888 27-993): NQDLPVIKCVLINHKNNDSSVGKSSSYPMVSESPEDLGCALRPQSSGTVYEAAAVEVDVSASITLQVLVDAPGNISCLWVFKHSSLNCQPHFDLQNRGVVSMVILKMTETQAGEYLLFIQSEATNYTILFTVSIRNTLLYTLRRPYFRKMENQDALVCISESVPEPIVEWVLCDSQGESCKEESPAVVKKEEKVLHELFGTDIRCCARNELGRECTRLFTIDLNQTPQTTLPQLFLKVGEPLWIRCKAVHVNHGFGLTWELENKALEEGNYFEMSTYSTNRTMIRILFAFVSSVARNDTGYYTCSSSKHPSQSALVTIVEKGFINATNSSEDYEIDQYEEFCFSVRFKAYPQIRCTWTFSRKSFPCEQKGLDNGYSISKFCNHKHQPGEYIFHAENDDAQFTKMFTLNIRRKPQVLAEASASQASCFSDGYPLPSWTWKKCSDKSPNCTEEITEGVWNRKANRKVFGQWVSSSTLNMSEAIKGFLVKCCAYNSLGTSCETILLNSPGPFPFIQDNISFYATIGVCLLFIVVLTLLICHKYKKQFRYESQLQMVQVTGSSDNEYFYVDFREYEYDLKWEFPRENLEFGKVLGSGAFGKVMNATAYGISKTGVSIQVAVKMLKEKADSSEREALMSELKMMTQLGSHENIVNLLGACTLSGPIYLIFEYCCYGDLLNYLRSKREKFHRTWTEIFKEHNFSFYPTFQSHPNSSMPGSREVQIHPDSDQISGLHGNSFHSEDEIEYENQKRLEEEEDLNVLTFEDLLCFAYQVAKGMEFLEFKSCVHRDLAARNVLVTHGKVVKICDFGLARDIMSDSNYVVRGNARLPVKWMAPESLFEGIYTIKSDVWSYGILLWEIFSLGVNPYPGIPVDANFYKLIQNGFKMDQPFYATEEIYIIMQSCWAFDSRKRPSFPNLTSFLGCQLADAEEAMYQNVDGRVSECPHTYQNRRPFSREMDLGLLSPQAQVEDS
Protocol: The inhibition ratios of test compounds for Pim-1, 2 (Life Technologies; Thermo Fisher Scientific Inc., MA, United States), 3 (Merck KgaA), and FLT3 (Life Technologies; Thermo Fisher Scientific Inc., MA, United States) were determined using a modified FRET-based Z′-LYTE kinase assay kit (Invitrogen; Thermo Fisher Scientific Inc.). The Ser/Thr 7 peptide and Tyr-2 peptide were used as substrates for Pim kinases and FLT3, respectively. The reactions were carried out in a 384-well plate with a 10 µL reaction volume per well containing 1 µM substrates in 50 mM HEPES buffer with pH 7.5, 0.01% BRIJ-35, 10 mM MgCl2, 1 mM EGTA, and an appropriate amount of kinases (Pim-1: 0.03 μg/ml, Pim-2: 0.2 μg/ml, Pim-3: 0.2 μg/ml, FLT3: 0.1 μg/ml) with test compounds. The final reaction concentrations of ATP were 400, 5, 100, and 500 µM for Pim-1, 2, 3, and FLT3 respectively. After 1 h incubation, reactions were developed and terminated, and fluorescence ratios were calculated following the manufacturer’s protocol.

Pim-1 = molecular target: T2, Pim-1 (Homo sapiens, UniProt P11309); assay: Binding detection based on SPR platform (BIACORE T200); settings: 6.5, 13, 25, or 50 µM
T2 construct: purchased Life Technologies; Thermo Fisher Scientific Inc
T2 sequence (P11309 whole entry): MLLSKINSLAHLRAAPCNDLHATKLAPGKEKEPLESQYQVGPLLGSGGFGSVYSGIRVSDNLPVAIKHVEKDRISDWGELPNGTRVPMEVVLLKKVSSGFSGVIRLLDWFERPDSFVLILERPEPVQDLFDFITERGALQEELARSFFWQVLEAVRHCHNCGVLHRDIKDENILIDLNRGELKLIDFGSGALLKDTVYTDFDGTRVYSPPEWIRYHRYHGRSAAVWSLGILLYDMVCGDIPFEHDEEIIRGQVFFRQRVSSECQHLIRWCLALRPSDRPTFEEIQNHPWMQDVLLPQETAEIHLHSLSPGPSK
Protocol: The interactions between test compounds and Pim-1 were detected by surface plasmon resonance platform BIACORE T200 (GE Healthcare Life Sciences, Buckinghamshire, England). Pim-1 was diluted to 20 μg/ml in 10 mM acetate buffer (pH 5.0), and then immobilized as a ligand in the N-hydroxysuccinimide/ethyl 3-(3-dimethylaminopropyl) carbodiimide-pre-activated CM5 sensor chip, following blocking by ethanolamine. Test compounds were diluted at 6.5, 13, 25, or 50 µM in a vehicle of 5% DMSO (v/v) in phosphate buffered saline (PBS). The dilutions were injected as analyte flow liquid phase with PBS containing 5% DMSO (v/v) as running buffer at a constant flow rate of 30 μL/min. A 2-min association time was set. The data were collected by Biacore Control Software. Kinetics and affinity parameters were evaluated with the Langmuir model (1:1) using BIA evaluation software.

- Phosphorylation level of 4EBP (MV-4-11 [1]): decreased
- Phosphorylation levels of Bad, 4EBP, and p21 (PC-3 [2]): decreased
- Phosphorylation levels of Bad, 4EBP, and p21 (MKN45): decreased
- IC50 (FLT3): 0.39 µM
SMILES: CN1CCN(c2ccc(-c3cnc4ccc(/C=C5\SC(=O)NC5=O)nn34)cc2)CC1 [YPC-21440, (Z)-5-([3-{4-(4-methylpiperazin-1-yl)phenyl}imidazo[1,2-b]pyridazin-6-yl]methylene)thiazolidine-2,4-dione]
- Percentage of cells in G1 phase (MV-4-11 [3]; MV-4-11, 0.3 µM): 55%
- Percentage of cells in G1 phase (MV-4-11 [3]; MV-4-11, 1 µM): 77%
- Percentage of cells in G1 phase (PC-3 [4]; PC-3, 0.3 µM): 55%
- Percentage of cells in G1 phase (PC-3 [4]; PC-3, 1 µM): 65%
- Mode of inhibition of Pim kinases (Lineweaver-Burk) (Pim-1, 2, and 3): ATP competitive manner
- Binding to Pim-1 by SPR (Biacore) (Pim-1): bound Pim-1 in a concentration-dependent manner

Reference: PMC8126654, “Novel Pan-Pim Kinase Inhibitors With Imidazopyridazine and Thiazolidinedione Structure Exert Potent Antitumor Activities” (Frontiers in Pharmacology, 2021)
